Target: T1, CnKBL (Cupriavidus necator, UniProt Q0K313, H138F)
T1 construct: gene kbl; gene cloned in pET-28a (NcoI/XhoI), E. coli BL21(DE3), Ni-Sepharose and gel filtration; dimer; PLP on K246
Test: threonine aldolase activity, coupled alcohol dehydrogenase assay
Type: biochemical
Details: TA activity not detectable

T1 sequence (Q0K313 entry or part of it H138F): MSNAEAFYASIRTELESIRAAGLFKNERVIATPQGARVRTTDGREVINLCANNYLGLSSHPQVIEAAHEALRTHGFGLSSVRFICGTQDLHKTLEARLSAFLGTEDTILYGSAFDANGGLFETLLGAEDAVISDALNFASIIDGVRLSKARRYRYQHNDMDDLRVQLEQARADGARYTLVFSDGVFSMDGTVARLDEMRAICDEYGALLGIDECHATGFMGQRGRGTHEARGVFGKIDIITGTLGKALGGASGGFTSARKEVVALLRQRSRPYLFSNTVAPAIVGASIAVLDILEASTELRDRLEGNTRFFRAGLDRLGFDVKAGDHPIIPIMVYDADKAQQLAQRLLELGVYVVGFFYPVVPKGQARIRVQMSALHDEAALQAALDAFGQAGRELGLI

C[C@@H](O)[C@H](N)C(=O)O [L-Thr]
threonine aldolase activity, coupled alcohol dehydrogenase assay: TA activity of the H138F variant decreased to an undetectable level compared with CnKBL(WT)

From article PMC9814548, “Chemoenzymatic synthesis of 3-ethyl-2,5-dimethylpyrazine by L-threonine 3-dehydrogenase and 2-amino-3-ketobutyrate CoA ligase/L-threonine aldolase” (Communications Chemistry, 2021)
